We go through 5 molecules from patent publication US20220265817A1, “THERAPEUTIC COMPOSITIONS AND METHODS FOR TREATING HEPATITIS B” (priority 2017, published 2022).

Data set [1] relates to HBV cccDNA-dependent precore RNA in DESHAe82 cells. The experiment in a line: DESHAe82 / DE19 cell culture system, cccDNA-derived precore RNA by qRT-PCR, MacSynergy II. Type of data set: cell-based, Hepatitis B virus. Particulars: ETV μM: 0.01, 0.0032, 0.001, 0.0003, 0.0001, 3E−05, 0. The protocol:
In vitro combination studies were conducted using a modification of the assay system described in Cai et al (Antimicrobial Agents Chemotherapy, 2012. Vol 56(8):4277-88). A previously developed HepDE19 cell culture system (Guo et al. J. Virology (2007) 81(22): 12472-12484) supports HBV DNA replication and cccDNA formation in a tetracycline (Tet)-regulated manner, and produces a detectable reporter molecule which is dependent upon the production and maintenance of cccDNA.
In the HepDE19 cell culture system, the reporters are the precore RNA and its cognate protein product, the secreted HBV “e antigen” (HBeAg). In HepDE19 cells, precore RNA and HBeAg are only produced from the cccDNA circular template, because the ORF of HBeAg and its 5′ RNA leader are separated between the opposite ends of the integrated viral genome, and only become contiguous with the formation of cccDNA. Although an assay based on the HepDE19 cell culture system is effective for determining activity, the results of high throughput screening may be complicated because the HBeAg ELISA cross reacts with a viral HBeAg homologue, which is the core antigen (HBcAg) expressed largely in a cccDNA-independent fashion in HepDE19 cells. To overcome this complication, an alternative cell culture system (designated herein as DESHAe82 cell culture system and described in PCT/EP/2015/06838) has been developed which includes an in-frame HA epitope tag in the N-terminal coding sequence of HBeAg in the transgene of DESHAe82 cells, without disrupting any cis-element critical for HBV replication, cccDNA transcription, and HBeAg secretion.
A chemiluminescence ELISA assay (CLIA) for the detection of HA-tagged HBeAg with HA antibody serving as capture antibody and […] has been developed, eliminating the contaminating signal from HBcAg. […] In addition, a protocol for quantitative reverse transcription and polymerase chain reaction (qRT-PCR) that is specific for detection of precore RNA in either DE19 or DESHAe82 cells was developed and is also used for the detection of the cccDNA-dependent mRNA (precore RNA) that is translated to produce HBeAg or HA-HBeAg.
To test the compound combinations, DESHAe82 or DE19 cells (as indicated in examples) were plated in 96 well tissue-culture treated microtiter plates in DMEM/F12 medium supplemented with 10% fetal bovine serum+1% penicillin-streptomycin with Tet, and incubated in a humidified incubator at 37° C. and 5% CO2 overnight. […] The two inhibitors were tested both singly as well as in combinations in a checkerboard fashion such that each test concentration of inhibitor A was combined with each test concentration of inhibitor B to determine their combination effects on inhibition of cccDNA formation and expression. Untreated negative control samples (0.5% DMSO or media only) were included on each plate in multiple wells. Following a 9 day-incubation, media was removed and cells were subjected to RNA extraction to measure the cccDNA-dependent precore mRNA level. Total cellular RNAs were extracted using a 96-well format total RNA isolation kit ([…]-NAGEL, Cat. 740466.4) by following the instruction of manufacturer (vacuum manifold processing, two more extra washes of Buffer RA4). RNA samples were eluted in RNAase-free water. Quantitative real-time RT-PCR was performed with a Roche LightCycler480 and RNA Master Hydrolysis probe (Catalog number 04991885001, Roche) using primers and conditions for specific detection of cccDNA-dependent precore RNA. GAPDH mRNA levels were also detected by standard methods and used to normalize the precore RNA levels.
A general note: Quantitative PCR measures a nucleic acid by following its amplification.

For another data set, the system named is HBV genome. The experiment in a line: siRNA IC50 (Table A). Also on record: species or system Hepatitis B virus.

[UNA] = unlocked nucleic acid; m = 2'-O-methyl; r = 2'-OH (RNA)

As for `C[C@@H](NS(=O)(=O)c1ccc(F)c(C(=O)Nc2ccc(F)c(F)c2)c1)c1cncs1` [Compound 4], the “Average percent inhibition versus negative control (precore RNA)” value in data set [1] (Compound 4 0.032 μM) is −49.48%; in data set [1] (Compound 4 0.100 μM), 66.78%; in data set [1] (Compound 4 0.317 μM), 94.67%; in data set [1] (Compound 4 1.001 μM) it was 93.92%; in data set [1] (Compound 4 3.165 μM), 97.88%; in data set [1] (Compound 4 10 μM), 97.53%.
Regarding “10m: siRNA duplex SEQ ID NO: 19 and 20 targeting the HBV genome (chain 1 GCCGAUCCAUACUGCGGAAUU; chain 2 UUCCGCAGUAUGGAUCGGCUU; chain 1: sugars from the 5' end [UNA]rrmrmrrrrrrmmrmmrr[UNA][UNA], backbone not given here; chain 2: sugars from the 5' end rrrrrrrmrrrrmrrrrmr[UNA][UNA], backbone not given here) [Compound 10m]”, the IC50 – broadly, the concentration that inhibits the measured activity by half – in the data set on HBV genome is 0.34 nM.
For “9m: siRNA duplex SEQ ID NO: 17 and 18 targeting the HBV genome (chain 1 AGGUAUGUUGCCCGUUUGUUU; chain 2 ACAAACGGGCAACAUACCUUU; chain 1: sugars from the 5' end [UNA]mrmrrrmrrrrrmrmrrr[UNA][UNA], backbone not given here; chain 2: sugars from the 5' end rrrrrrmrrrrrrrmrrrm[UNA][UNA], backbone not given here) [Compound 9m]”, the half-inhibitory concentration (IC50) with HBV genome turned out to be 0.13 nM.
Still for that read-out and setting: in the case of “6m: siRNA duplex SEQ ID NO: 11 and 12 targeting the HBV genome (chain 1 CUGGCUCAGUUUACUAGUGUU; chain 2 CACUAGUAAACUGAGCCAGUU; chain 1: sugars from the 5' end [UNA]mmmrrrrrrrrrrmrmrrr[UNA], backbone not given here; chain 2: sugars from the 5' end rrrrrmrrrrrrmrmrrrrrr, backbone not given here) [Compound 6m]” it was 0.05 nM.
The same measure, in the same setting: in the case of “1m: siRNA duplex SEQ ID NO: 1 and 2 targeting the HBV genome (chain 1 AGGUAUGUUGCCCGUUUGUUU; chain 2 ACAAACGGGCAACAUACCUUU; chain 1: sugars from the 5' end [UNA]mrmrrmmrrrrrmrmrrr[UNA][UNA], backbone not given here; chain 2: sugars from the 5' end rrrrrrmrrrrrrrmrrrr[UNA][UNA], backbone not given here) [Compound 1m]” it was 1.43 nM.
